Values joined by “and” are separate entries in the source; they are usually repeats but may differ in a detail not shown here. Equal values may be shown once. Read-outs that look alike come from different tables or passages of the source.
Legend:
[1] = the molecule shown is the open-chain precursor
[2] = test system: NQO1 activation in BEAS-2B cells; assay: BEAS-2B cellular MTT assay of NQO1 activation, 0.3% HSA; type: cell-based
In short: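 MTT read-out in BEAS-2B cells grown in BEBM with SingleQuots, no GA-1000, kept below 70% confluence; plates coated with collagen, with 0.3% or 0% HSA medium, seeded to 95-100% confluency at 48 h, 37 °C, 5% CO2.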

[3] = test system: NQO1 activation in BEAS-2B cells; assay: BEAS-2B cellular MTT assay of NQO1 activation, 0% HSA; type: cell-based
In short: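 For the 0% HSA condition, cells were seeded into collagen plates in HSA-free medium. Culture was BEAS-2B in BEBM plus BEGM SingleQuots lacking GA-1000, held under 70% confluence, at a seeding density reaching 95-100% confluence by 48 h.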

[4] = target: HIS-Keap1 full length / Biotin-Nrf2 (16-mer) (Homo sapiens, UniProt Q14145); assay: biochemical
Sequence of HIS-Keap1 full length / Biotin-Nrf2 (16-mer) (Q14145 whole entry): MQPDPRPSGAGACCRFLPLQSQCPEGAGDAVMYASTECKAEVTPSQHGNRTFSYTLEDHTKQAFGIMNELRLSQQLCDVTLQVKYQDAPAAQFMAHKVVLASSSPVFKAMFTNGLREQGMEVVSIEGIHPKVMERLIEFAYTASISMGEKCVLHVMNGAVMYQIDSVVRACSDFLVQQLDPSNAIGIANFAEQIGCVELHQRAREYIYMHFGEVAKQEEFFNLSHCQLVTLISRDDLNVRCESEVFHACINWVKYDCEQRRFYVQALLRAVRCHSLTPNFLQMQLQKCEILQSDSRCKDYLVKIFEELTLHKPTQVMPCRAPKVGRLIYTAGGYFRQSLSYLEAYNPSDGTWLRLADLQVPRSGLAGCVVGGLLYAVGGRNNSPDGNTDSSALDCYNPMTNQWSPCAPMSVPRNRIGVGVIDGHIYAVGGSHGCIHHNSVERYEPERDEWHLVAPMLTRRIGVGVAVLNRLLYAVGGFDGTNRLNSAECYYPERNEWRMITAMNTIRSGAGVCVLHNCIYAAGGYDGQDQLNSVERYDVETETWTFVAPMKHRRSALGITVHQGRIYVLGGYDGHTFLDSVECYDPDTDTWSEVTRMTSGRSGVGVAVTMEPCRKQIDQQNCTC

[5] = test system: genes of interest (GOI) in HUDEP cells; assay: Gene expression by qPCR in HUDEP cells treated with compound titration; type: cell-based; conditions: HbG, read-out: HUDEP HbG EC50 (μM) (Num)
Procedure: Evaluation of the gene expression by qPCR in HUDEP cells treated with titration of novel compounds. HUDEP Compound Treatment Method
HUDEP cells were plated in 96-well plates, @ 25,000 cells per well in 200 μL of maintenance media. Compounds were added in a 10-point dose response starting at 10 uM with 1/3 dilution scheme using the HP digital diluter. A DMSO control was run to all for normalization of DMSO. The compounds were incubated for 48 hours in 37° C. incubator with 5% CO2. Post incubation, total RNA was isolated using Cells to Ct kit and gene expression was evaluated for genes of interest (GOI) after normalizing to a housekeeping gene. The ΔΔCT was calculated and compared to the DMSO control.
Cell Lysis, Isolation and Gene Expression Materials
Cells to Ct is a kit offered by Applied Biosystems. mRNA prepared using this kit can be directly used for cDNA conversion followed subsequently with qPCR for gene expression analysis
Cell lysis and preparation of RNA: For suspension cells such as HUDEPs, 10,000-100,000 cells (as per kit guidelines) were used for making lysates. The plate was centrifuged at 1500 rpm for 5 mins and the cells were pelleted. Spent medium was removed using a multi-channel pipette. 200 μL ice-cold PBS was added to all treated wells, followed by centrifuging at 1500 rpm for 5 mins 195 μL cold PBS were aspirated from all treatment wells without disturbing the cell monolayer.
To prepare the Cells to CT lysis solution, 49.5 μL of the Cells to CT Lysis Buffer and 0.5 μL/well DNase I (returned DNase I reagent to the −20 C freezer immediately after pipetting) were added to each well. The Cells to CT lysis solution was pipetted to a reservoir and 50 μL were added per well to the treated wells. (Mix 35 μL 5 times without creating bubbles and set timer to 5 mins. At the end of the 5-minute incubation, add 5 μL of stop solution with a multichannel pipet touching the tip to the liquid. Then mix 35 μL 5 times without creating bubbles and set timer to 2 mins.)
The plates were sealed and stored at −20° C. until cDNA synthesis. Optionally they were placed on ice to allow for directly moving to the cDNA synthesis.
cDNA Synthesis: The cell lysate plates were thawed on ice if necessary and mixed 4 times with a multi-channel pipette. 4 μL of Superscript IV VILO and 6 μL of Nuclease free water were combined together for each sample. The mixture was poured into a reservoir and 10 μL was pipetted into each well of a 96-well PCR plate. 10 μL of lysate prepared previously was added and mixed 5 times. The wells were completely sealed, especially around the edges, with plate sealing film using the plate sealing paddle. The PCR plate was centrifuged to pull down the sample to the bottom of the wells. The lysate plate was sealed and returned to the −20° C. freezer as soon as possible. The PCR plate was placed in the thermal cycler and run at 20 μL at 25° C. for 10 minutes, 50° C. for 10 minutes, 85° C. for 5 minutes and then 4° C.
Real Time PCR: The cDNA plate was thawed at room temperature when necessary and 30 μL nuclease free water was added to each cell lysate, followed by mixing, up and down 4 times with a pipette. The primers were thawed for the genes of interest—both housekeeping gene (HKG) and gene(s) of interest (GOI).
A template was prepared and the number of wells needed for each gene of interest (GOI) calculated. Each sample required 2 μL of cDNA, 5 μL of Taqman Master Mix, 0.16667 μL of GOI at 60 times concentration, 0.16667 μL of HKG at 60 times concentration and 2.6667 μL of nuclease free water. If genes at 20 times concentration were used, then 2 μL cDNA, 5 μL Taqman Master Mix, 0.5 GOI, 0.5 μL HKG and 2 μL of nuclease free water were combined for each well.
After calculating the number of wells for each gene, GOI, HKG, Taqman Master Mix and Nuclease free water were combined. 8 μL were pipetted in to each well of the 384-well PCR plate as detailed in the template. […]

[6] = rcm bond, 22-membered ring, Grubbs catalyst (General procedure 7)
[7] = BEAS+ W, read-out: BEAS+ W EC50
[8] = Homo sapiens, BEAS+ W, read-out: BEAS+ W EC50
[9] = Homo sapiens, BEAS+, read-out: BEAS+ EC50
[10] = Homo sapiens, Serum Free W, read-out: BEAS EC50 (nM) Serum Free W
[11] = Homo sapiens, serum free, read-out: BEAS EC50 (nM) serum free
[12] = Serum Free W, read-out: BEAS EC50 (nM) Serum Free W
[13] = serum free, read-out: BEAS EC50 (nM) serum free

| Compound | EC50 ([2]; BEAS+, read-out: BEAS+ EC50) | EC50 [2, 9] [nM] | EC50 [3, 11] [nM] | EC50 [3, 13] | IC50 [4] | also measured |
| --- | --- | --- | --- | --- | --- | --- |
| free amino acid (NH tetrahydroisoquinoline, CO2H benzoic acid) from deprotection of Mitsunobu di-ether of tert-butyl 7-(3-(benzyloxy)-1-(1-(3-(2-hydroxyethoxy)propyl)-4-methyl-1H-benzo[d][1,2,3]triazol-5-yl)-3-oxopropyl)-3,4-dihydroisoquinoline-2(1H)-carboxylate with tert-butyl 2,6-difluoro-4-hydroxybenzoate | – | – | – | – | – | ring closure, isolated yield ([1]; amide bond, 23-membered ring, HATU/Et3N): 30% |
| amide of methyl 3-(1-(but-3-en-1-yl)-1H-benzo[d][1,2,3]triazol-5-yl)-3-(1,2,3,4-tetrahydroisoquinolin-7-yl)propanoate with 4-(allyloxy)benzoic acid | – | – | – | – | – | ring closure, isolated yield [1, 6]: 47% |
| Cc1c2ccc3c1nnn3CCCCCCOc1ccc(cc1)C(=O)N1CCc3ccc(cc3C1)[C@@H]2[C@@H](C)C(=O)O [Compound 107] | 2.4 nM | 3.2 | 0.6 | 0.4 nM | 1.6 nM | EC50 [2, 7]: 32.7 nM; EC50 [2, 8]: 16.7 nM; EC50 [3, 10]: 3.6 nM; EC50 [3, 12]: 4.1 nM; EC50 [5]: 0.038 µM |
| amide of rel-methyl (R)-3-(1-(hex-5-en-1-yl)-4-methyl-1H-benzo[d]imidazol-5-yl)-3-(1,2,3,4-tetrahydroisoquinolin-7-yl)propanoate with 4-vinylbenzoic acid | – | – | – | – | – | ring closure, isolated yield ([1]; rcm bond, 22-membered ring, Grubbs II (extra portion)): 27% |
| Cc1c2ccc3c1nnn3CCCCCCc1ccc(cc1)C(=O)N1CCc3ccc(cc3C1)[C@H]2[C@@H](C)C(=O)O [Compound 129] | 3080 nM | 2190 | 1360 | 1220 nM | – | EC50 [2, 7]: 2.2 nM and 1.6 nM and 1.9 nM; EC50 [2, 8]: 2 nM; EC50 [5]: 0.013 µM |
| Cc1c2ccc3c1nnn3CCCCCCc1ccc(cc1)C(=O)N1CCc3ccc(cc3C1)[C@@H]2CC(=O)O (single isomer, unassigned) [Compound 223] | – | – | – | – | 0.5 nM and 0.9 nM and 1.2 nM (2×) | EC50 [5]: 0.015 µM |
| amide of methyl 3-(4-methyl-6-(pent-4-en-1-yloxy)pyridin-3-yl)-3-(1,2,3,4-tetrahydroisoquinolin-7-yl)propanoate with 4-vinylbenzoic acid | – | – | – | – | – | ring closure, isolated yield ([1]; rcm bond, 21-membered ring, Grubbs catalyst (General procedure 15)): 64% |
| amide of rel-methyl (S)-3-(4-methyl-1-(pent-4-en-1-yl)-1H-benzo[d][1,2,3]triazol-5-yl)-3-(1,2,3,4-tetrahydroisoquinolin-7-yl)propanoate with 4-allylbenzoic acid | – | – | – | – | – | ring closure, isolated yield [1, 6]: 99% |
| O=C(O)CC1c2ccc3c(c2)CN(CC3)C(=O)c2ccc(c3ccccc23)OCCCCCCn2nnc3cc1ccc32 (stereo not drawn) [Compound 338] | – | 27.5 | 25.3 | – | 0.2 nM and 0.1 nM | EC50 [5]: 0.667 µM |
| amide of methyl 3-(4-methyl-1-(pent-4-en-1-yl)-1H-benzo[d][1,2,3]triazol-5-yl)-3-(1,2,3,4-tetrahydroisoquinolin-7-yl)propanoate with 1-methyl-5-vinyl-1H-indole-3-carboxylic acid | – | – | – | – | – | ring closure, isolated yield ([1]; rcm bond, 21-membered ring, Grubbs catalyst (General procedure 7)): 65% |
| O=C(O)CC1c2ccc3c(c2)CN(CC3)C(=O)c2c(F)cc(cc2F)CCCCCn2nnc3cc1ccc32 (stereo not drawn) [Compound 241] | – | – | – | – | 0.4 nM | EC50 [5]: 0.095 µM |
| Cc1c2ccc3c1nnn3CCCCCCOc1ccc(cn1)C(=O)N1CCc3ccc(cc3C1)C2CC(=O)O (stereo not drawn) [Compound 378] | 155 nM | 213 | 133 | 139 nM | 7.7 nM and 8 nM | – |
| Cc1cc2ncc1[C@@H](CC(=O)O)c1ccc3c(c1)CN(CC3)C(=O)c1ccc(cc1)COCCCO2 [Compound 81] | – | – | – | – | 251 nM and 220 nM | EC50 [2, 7]: 1950 nM; EC50 [2, 8]: 2160 nM; EC50 [3, 10]: > 1000 nM; EC50 [3, 12]: 1840 nM |
| Cc1cc2ccc1C(=O)N1CCc3ccc(cc3C1)[C@@H](CC(=O)O)c1ccc3c(nnn3CCCCCC2)c1C [Compound 240] | 0.6 nM | 1 | 1.1 | 0.6 nM | – | EC50 [5]: 0.018 µM |
| Cc1c2cnc3c1nnn3CCCCCCOc1ccc(c(F)c1)C(=O)N1CCc3ccc(cc3C1)C2CC(=O)O (stereo not drawn) [Compound 222] | 38.6 nM | 47.4 | 17.2 | 14.2 nM | 1.6 nM and 1.5 nM | – |
| C[C@@H](C(=O)O)[C@H]1c2ccc3c(c2)CN(CC3)C(=O)c2ccc(cc2)OCCCCCn2nnc3cc1ccc32 [Compound 232] | 8.3 nM | 9 | 7.2 | 4.6 nM | 1.4 nM | – |
| CC(C)(C(=O)O)[C@@H]1c2ccc3c(c2)CN(CC3)C(=O)c2c(F)cc(cc2F)OCCCCCCn2nnc3cc1ccc32 [Compound 236] | 248 nM and 220 nM and 190 nM | 286 | 62.7 | 50.3 nM and 82.1 nM and 84.7 nM | 51 nM and 44.4 nM and 44.6 nM | – |
| Cc1cc2ncc1[C@H]([C@@H](C)C(=O)O)c1ccc3c(c1)CN(CC3)C(=O)c1ccc(cc1)CCCCCO2 [Compound 75] | – | – | – | – | 21.7 nM and 22.7 nM | EC50 [2, 7]: 60 nM; EC50 [2, 8]: 45.2 nM; EC50 [3, 10]: 9.1 nM; EC50 [3, 12]: 16 nM |
| Cc1c2ccc3c1nnn3CCCCCc1ccc3c(c1)cc(n3C)C(=O)N1CCc3ccc(cc3C1)[C@H]2[C@H](C)C(=O)O [Compound 114] | – | – | – | – | 0.4 nM | EC50 [2, 7]: 8.2 nM; EC50 [2, 8]: 9.8 nM; EC50 [3, 10]: 0.1 nM; EC50 [3, 12]: 0.2 nM |
| Cc1cc2ccc1C(=O)N1CCc3ccc(cc3C1)C(CC(=O)O)c1ccc3c(nnn3CCCCCC2)c1Cl (stereo not drawn) [Compound 171] | 5.4 nM | 8.3 | 1 | 1.6 nM | 2.5 nM | – |
| O=C(O)CC1c2ccc3c(c2)CN(CC3)C(=O)c2ccc(cc2F)CCCCCn2nnc3c(Cl)c1ccc32 (stereo not drawn) [Compound 145] | 0.7 nM | 0.4 | 0.6 | 0.5 nM | 0.1 nM | – |
| Cc1c2ccc3c1nnn3CCCCCOc1ccc(c(F)c1)C(=O)N1CCc3ccc(cc3C1)[C@H]2CC(=O)O [Compound 259] | 78.5 nM | 47.6 | 20.2 | 18.7 nM | 4.1 nM | – |
| Cc1c2cnc3c1nnn3CCCCCc1cccc(c1)C(=O)N1CCc3ccc(cc3C1)C2CC(=O)O (stereo not drawn) [Compound 354] | – | – | – | – | 20.1 nM and 13.8 nM | EC50 [2, 7]: 2130 nM; EC50 [2, 8]: 2700 nM; EC50 [3, 10]: > 1000 nM |

— patent US12692274B2, “Tetrahydroisoquinoline derivatives for the treatment of red blood disorders and inflammatory diseases” (Sanofi, priority 2020, dated 2026)
